Results reported in ChEMBL document CHEMBL2146446, “3-Hydroxy-1-alkyl-2-methylpyridine-4(1H)-thiones: Inhibition of the Pseudomonas aeruginosa Virulence Factor LasB” (ACS Med Chem Lett, 2012).
Activity calls are given as the source filed them. The rule behind the calls is not given here.

Tests used:
[1] = Metabolic stability in tryptic soy broth assessed as S-oxidation at 50 uM after 48 hrs; type: physicochemical
Elastase = Elastase (Pseudomonas aeruginosa (strain ATCC 15692 / PAO1 / 1C / PRS 101 / LMG12228), UniProt P14756); test: (§1) Antagonist activity at Pseudomonas aeruginosa LasB using Abz-Ala-Gly-Leu-Ala-p-Nitro-Benzyl-Amide as substrate incubated for 30 mins prior to substrate addition by FRET assay; type: functional
Pseudomonas aeruginosa = test: Toxicity against Pseudomonas aeruginosa PA14 assessed as viability at 25 uM by spectrophotometry; type: organism-based; details: read-out: Activity
[2] = Metabolic stability in tryptic soy broth assessed as decomposition at 50 uM after 48 hrs; type: physicochemical
[3] = molecular target: Elastase (Pseudomonas aeruginosa (strain ATCC 15692 / PAO1 / 1C / PRS 101 / LMG12228)) (UniProt P14756); test: Antagonist activity at Pseudomonas aeruginosa PA14 LasB assessed as inhibition of swarming at 25 uM after 16 hrs swarming motility assay relative to control; type: functional
[4] = molecular target: Elastase (Pseudomonas aeruginosa (strain ATCC 15692 / PAO1 / 1C / PRS 101 / LMG12228)) (UniProt P14756); test: as §1; type: functional

Elastase, sequence (P14756 whole entry): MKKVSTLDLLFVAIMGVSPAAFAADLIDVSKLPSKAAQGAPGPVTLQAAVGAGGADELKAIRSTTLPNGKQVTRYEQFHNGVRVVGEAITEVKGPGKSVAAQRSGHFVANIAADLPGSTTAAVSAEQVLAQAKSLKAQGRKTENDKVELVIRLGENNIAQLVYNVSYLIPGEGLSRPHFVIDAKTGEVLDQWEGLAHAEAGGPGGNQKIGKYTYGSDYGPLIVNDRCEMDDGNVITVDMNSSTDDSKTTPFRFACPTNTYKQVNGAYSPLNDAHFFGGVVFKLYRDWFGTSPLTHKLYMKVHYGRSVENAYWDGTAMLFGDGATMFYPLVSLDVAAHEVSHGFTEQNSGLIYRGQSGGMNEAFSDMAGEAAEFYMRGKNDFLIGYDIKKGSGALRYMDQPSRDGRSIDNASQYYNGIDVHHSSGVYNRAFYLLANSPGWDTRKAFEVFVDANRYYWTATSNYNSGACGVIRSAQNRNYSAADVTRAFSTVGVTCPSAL
Elastase (Pseudomonas aeruginosa (strain ATCC 15692 / PAO1 / 1C / PRS 101 / LMG12228)), sequence (P14756 198-498 limits assumed): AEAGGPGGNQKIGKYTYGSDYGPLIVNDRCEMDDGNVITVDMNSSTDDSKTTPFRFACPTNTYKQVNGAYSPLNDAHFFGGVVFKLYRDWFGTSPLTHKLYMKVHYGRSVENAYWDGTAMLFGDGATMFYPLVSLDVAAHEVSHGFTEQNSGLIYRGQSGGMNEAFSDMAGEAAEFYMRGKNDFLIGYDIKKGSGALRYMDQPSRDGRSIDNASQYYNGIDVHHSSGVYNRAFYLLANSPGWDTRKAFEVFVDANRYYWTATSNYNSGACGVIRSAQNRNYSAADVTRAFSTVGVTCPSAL

| SMILES | Stability [1] | IC50 (Elastase) | viability at 25 µM (Pseudomonas aeruginosa) | Stability [2] | Activity [3] | Activity [4] |
| --- | --- | --- | --- | --- | --- | --- |
| Cc1c(O)c(=S)ccn1Cc1ccc(-c2ccc(F)c(F)c2)cc1 | Stable | 3.34 µM | 95% | Stable | Active |  |
| Cc1c(O)c(=S)ccn1Cc1ccc(-c2ccc(F)cc2)cc1 |  | 4.65 µM |  |  |  |  |
| O=C(Cc1ccccc1)NO [PHENYLACETOHYDROXAMIC ACID] | Unstable | 13.6 µM |  | Unstable | inactive | Dose-dependent effect |
| CCn1ccc(=S)c(O)c1C |  | 88.5 µM |  |  |  | Dose-dependent effect |
| O=C(Cc1cccc(F)c1)NO | Unstable | 16.4 µM |  | Unstable | inactive | Dose-dependent effect |
| Cc1ccc(-c2ccc(Cn3ccc(=S)c(O)c3C)cc2)cc1 |  | 6.72 µM |  |  |  |  |
| Cc1c(O)c(=S)ccn1Cc1ccc(-c2ccc(Cl)cc2)cc1 |  | 5.27 µM |  |  |  |  |
| Cc1c(O)c(=S)ccn1Cc1ccc(-c2ccccc2)cc1 | Stable | 2.73 µM | 95% | Stable | Active |  |
| Cn1cccc(O)c1=S |  | 220 µM |  |  |  | Dose-dependent effect |
| Cc1c(O)c(=S)ccn1C |  |  |  |  |  | Dose-dependent effect |
| COc1ccc(-c2ccc(Cn3ccc(=S)c(O)c3C)cc2)cc1 |  | 8.58 µM |  |  |  |  |
| CCc1c(O)c(=S)ccn1CC |  |  |  |  |  | Dose-dependent effect |
| Cc1c(O)c(=S)ccn1Cc1ccc(-c2ccc3c(c2)OCO3)cc1 |  | 3.58 µM |  |  |  |  |
